Measurements published in US20230135729A1, “COMPOUND WITH ANTI-SPORE ACTIVITY AND PHARMACEUTICAL COMPOSITION THEREOF” (priority 2020, published 2023).
Values after ≈ are worked out from the molar mass of the structure shown.

How the values were obtained:
Assay type in all cases: cell-based
[1] = system: spores of ATCC BBA1870 strain; assay: Inhibition of germination of C. difficile spores (MIC), strain ATCC BBA1870; details: Clostridioides difficile, ATCCBBA1870STRAIN, 1 h; strain 1870; sodium taurocholate as germinant, BHIS medium, 37° C., OD580 for 60 min; read-out: MIC (minimum concentration that completely inhibits spore germination)
Experimental: (§1) According to a method disclosed in “The Journal of Infectious Diseases. 2013; 207: 1498-504”, spores of ATCC BBA1870, ATCC 43255 and ATCC 630 strains were obtained by culture and purification, and stored at 4° C.
(§2) Spore preparation: the C. difficile spores stored at 4° C. were heat-activated for 30 min at 65° C., centrifuged at 9,400 g for 2 min, and washed three times to remove any self-germinating spores.
(§3) Control drug: three cholic acid derivatives, a compound CamSA, a compound 20β (prepared by the method of “Journal of Medicinal Chemistry. 2017, 60 (8): 3451-3471”), and a compound 12a (prepared by the method of “Journal of Medicinal Chemistry. 2018, 61, 6759-6778”), were used as control drugs.
(§4) Compound preparation: the compound of the present disclosure, and the positive control drugs CamSA, 20β, and 12a were dissolved in DMSO, to prepare a stock solution with a concentration of 10 mM (prepared for immediate use).
(§5) The detection was conducted in a 96-well cell culture plate at a constant temperature of 37° C.; a final volume of each well of the 96-well plate was […] and a buffer was the BHIS medium; 150 μl of spores and drugs were added to the well in advance, and 50 μl of 4 mg/ml sodium taurocholate was added; OD580 was detected every 1 min immediately using a microplate reader, for continuously 60 min. A germination agent control group and a non-germination group were set up; after the detection, a final OD value of each well was compared with an initial value, and compared with the germination agent group to calculate a germination rate and an inhibition rate. A formula for the germination rate was:
(§6) Inhibition rate=100%−germination rate.

[2] = system: spores of ATCC 630 strain; assay: Inhibition of germination of C. difficile spores (MIC), strain ATCC 630; details: Clostridioides difficile, ATCC630, 1 h; strain 630; sodium taurocholate as germinant, BHIS medium, 37° C., OD580 for 60 min; read-out: MIC (minimum concentration that completely inhibits spore germination)
Experimental: as §1, §2, §3, §4, §5, §6

[3] = system: spores of ATCC 43255 strain; assay: Inhibition of germination of C. difficile spores (MIC), strain ATCC 43255; details: Clostridioides difficile, ATCC43255, 1 h; strain 43255; sodium taurocholate as germinant, BHIS medium, 37° C., OD580 for 60 min; read-out: MIC (minimum concentration that completely inhibits spore germination)
Experimental: as §1, §2, §3, §4, §5, §6

Structure (SMILES)	MIC [1]	MIC [2]	MIC [3]
CC[C@@H](NC(=O)C[C@@H](C)[C@H]1CC[C@H]2[C@@H]3[C@H](O)CC4=CC(=O)CC[C@]4(C)[C@H]3CC[C@]12C)c1ccc(Br)s1 [Compound I-155-2]	0.25 µM (≈ 0.144 µg/mL)	0.25 µM (≈ 0.144 µg/mL)	0.25 µM (≈ 0.144 µg/mL)
CC[C@H](NC(=O)C[C@@H](C)[C@H]1CC[C@H]2[C@@H]3[C@H](O)C[C@@H]4CC(=O)CC[C@]4(C)[C@H]3CC[C@]12C)c1ccc(Br)s1 [Compound I-90]	> 256 µM	> 256 µM	> 256 µM
CC[C@H](NC(=O)C[C@@H](C)[C@H]1CC[C@H]2[C@@H]3[C@H](OS(=O)(=O)O)C[C@@H]4CC(=O)CC[C@]4(C)[C@H]3CC[C@]12C)c1ccc(Cl)s1 [Compound I-105]	> 256 µM	> 256 µM	> 256 µM
C[C@H](CC(=O)NC(c1cccs1)C(C)(C)C)[C@H]1CC[C@H]2[C@@H]3C(=O)C[C@@H]4CC(=O)CC[C@]4(C)[C@H]3CC[C@]12C (stereo partly drawn) [Compound I-43]	64 µM (≈ 33.7 µg/mL)	32 µM (≈ 16.8 µg/mL)	32 µM (≈ 16.8 µg/mL)
CC[C@@H](NC(=O)C[C@@H](C)[C@H]1CC[C@H]2[C@@H]3[C@H](O)[C@H](O)[C@@H]4CC(=O)CC[C@]4(C)[C@H]3CC[C@]12C)c1ccc(Br)s1 [Compound I-124]	64 µM (≈ 38.1 µg/mL)	64 µM (≈ 38.1 µg/mL)	64 µM (≈ 38.1 µg/mL)
CCCCCCCC(=O)O[C@@H]1C[C@@H]2CC(=O)CC[C@]2(C)[C@H]2CC[C@]3(C)[C@@H]([C@H](C)CC(=O)N[C@H](CC)c4ccc(Br)s4)CC[C@H]3[C@H]12 [Compound I-184]	128 µM (≈ 90.2 µg/mL)	128 µM (≈ 90.2 µg/mL)	128 µM (≈ 90.2 µg/mL)
C[C@H](CC(=O)NCc1cccs1)[C@H]1CC[C@H]2[C@@H]3[C@@H](O)C[C@@H]4C[C@H](O)CC[C@]4(C)[C@H]3CC[C@]12C [Compound I-12]	128 µM (≈ 60.6 µg/mL)	256 µM (≈ 121 µg/mL)	256 µM (≈ 121 µg/mL)
CO[C@@H]1CC[C@@]2(C)[C@@H](C1)C[C@@H](O)[C@@H]1[C@@H]2CC[C@]2(C)[C@@H]([C@H](C)CC(=O)N[C@@H](c3ccc(Cl)s3)C(C)C)CC[C@@H]12 [Compound I-170]	128 µM (≈ 72.2 µg/mL)	128 µM (≈ 72.2 µg/mL)	128 µM (≈ 72.2 µg/mL)
CCC(NC(=O)C[C@@H](C)[C@H]1CC[C@H]2[C@@H]3C[C@H](O)[C@@H]4C[C@H](O)CC[C@]4(C)[C@H]3CC[C@]12C)c1ccc(Cl)s1 (stereo partly drawn) [Compound I-126]	2 µM (≈ 1.07 µg/mL)	1 µM (≈ 0.536 µg/mL)	2 µM (≈ 1.07 µg/mL)
CC[C@H](NC(=O)C[C@@H](C)[C@H]1CC[C@H]2[C@@H]3[C@H](O)C[C@@H]4CC(=O)CC[C@]4(C)[C@H]3CC[C@]12C)c1ccc(S(=O)(=O)O)s1 [Compound I-93]	> 256 µM	> 256 µM	> 256 µM
C[C@H](CC(=O)NCC1CC1)[C@H]1CC[C@H]2[C@@H]3[C@H](O)C[C@@H]4C[C@H](O)CC[C@]4(C)[C@H]3CC[C@]12C [Compound I-1]	32 µM (≈ 13.8 µg/mL)	32 µM (≈ 13.8 µg/mL)	32 µM (≈ 13.8 µg/mL)
CCC(NC(=O)C[C@@H](C)[C@H]1CC[C@H]2[C@@H]3[C@H](O)C[C@@H]4CC(=O)CC[C@]4(C)[C@H]3CC[C@]12C)c1cccs1 (stereo partly drawn) [Compound I-84]	1 µM (≈ 0.5 µg/mL)	1 µM (≈ 0.5 µg/mL)	1 µM (≈ 0.5 µg/mL)
C[C@H](CC(=O)NCc1cccs1)[C@H]1CC[C@H]2[C@@H]3[C@H](O)C[C@@H]4C[C@H](O)CC[C@]4(C)[C@H]3C[C@H](O)[C@]12C [Compound I-18]	32 µM (≈ 15.7 µg/mL)	8 µM (≈ 3.92 µg/mL)	8 µM (≈ 3.92 µg/mL)
CC(C)[C@@H](NC(=O)C[C@@H](C)[C@H]1CC[C@H]2[C@@H]3[C@H](O)C[C@@H]4C[C@H](O)CC[C@]4(C)[C@H]3CC[C@]12C)c1ccc(Cl)s1 [Compound I-139]	2 µM (≈ 1.1 µg/mL)	1 µM (≈ 0.55 µg/mL)	1 µM (≈ 0.55 µg/mL)
